According to PMC5882164, “A novel calcimimetic agent, evocalcet (MT-4580/KHK7580), suppresses the parathyroid cell function with little effect on the gastrointestinal tract or CYP isozymes in vivo and in vitro” (PLoS ONE, 2018):

Assays:
Experiment in all cases: CYP inhibition assay in human liver microsomes
Format in all cases: in vitro ADME
CYP2A6 = target: T1, CYP2A6 (Homo sapiens, UniProt P11509); conditions: no pre-incubation, read-out: IC50 direct inhibition of CYP2A6
T1 construct: from tissue; host or cells: human liver microsomes
T1 sequence (P11509 1-494): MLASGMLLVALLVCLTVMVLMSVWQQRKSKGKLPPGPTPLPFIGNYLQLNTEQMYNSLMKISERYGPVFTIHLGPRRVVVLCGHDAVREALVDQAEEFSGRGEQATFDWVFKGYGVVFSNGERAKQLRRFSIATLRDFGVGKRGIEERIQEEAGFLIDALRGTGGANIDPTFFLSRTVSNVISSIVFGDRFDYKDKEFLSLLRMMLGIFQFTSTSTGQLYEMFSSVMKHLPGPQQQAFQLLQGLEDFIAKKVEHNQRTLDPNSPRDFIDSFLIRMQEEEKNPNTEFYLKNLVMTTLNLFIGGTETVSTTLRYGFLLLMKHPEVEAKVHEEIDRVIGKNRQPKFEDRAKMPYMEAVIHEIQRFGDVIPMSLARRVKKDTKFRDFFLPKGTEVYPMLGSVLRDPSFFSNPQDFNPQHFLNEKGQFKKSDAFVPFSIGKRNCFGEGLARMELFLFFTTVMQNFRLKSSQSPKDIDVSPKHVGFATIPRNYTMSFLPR
Procedure: (§1) The direct inhibition of evocalcet (0.15~50 μM, 6-point concentrations) against the specific activities of 9 CYP isozymes (CYP1A2, CYP2A6, CYP2B6, CYP2C8, CYP2C9, CYP2C19, CYP2D6, CYP2E1, and CYP3A4/5) was examined in human liver microsomes without the pre-incubation of evocalcet, in the presence of the NADPH-generating system. Each CYP substrate was incubated with human liver microsomes in the absence or presence of evocalcet, and the inhibition of evocalcet for each CYP isozyme was measured.

CYP2B6 = target: T2, CYP2B6 (Homo sapiens, UniProt P20813); conditions: no pre-incubation, read-out: IC50 direct inhibition of CYP2B6
T2 construct: from tissue; host or cells: human liver microsomes
T2 sequence (P20813 1-491): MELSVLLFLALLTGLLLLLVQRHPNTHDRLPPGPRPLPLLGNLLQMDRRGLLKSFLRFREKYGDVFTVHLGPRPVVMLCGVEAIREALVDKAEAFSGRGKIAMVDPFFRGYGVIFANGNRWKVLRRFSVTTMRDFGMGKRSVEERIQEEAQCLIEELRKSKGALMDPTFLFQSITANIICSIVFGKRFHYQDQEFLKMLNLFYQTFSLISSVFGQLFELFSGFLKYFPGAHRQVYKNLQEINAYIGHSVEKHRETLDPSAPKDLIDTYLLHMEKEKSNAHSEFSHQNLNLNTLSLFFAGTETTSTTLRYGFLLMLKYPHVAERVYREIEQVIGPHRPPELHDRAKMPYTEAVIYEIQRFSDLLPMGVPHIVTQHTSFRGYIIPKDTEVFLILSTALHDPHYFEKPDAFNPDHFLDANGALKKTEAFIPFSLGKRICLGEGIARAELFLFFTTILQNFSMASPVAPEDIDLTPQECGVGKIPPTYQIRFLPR
Procedure: as §1

CYP2C8 = target: T3, CYP2C8 (Homo sapiens, UniProt P10632); conditions: no pre-incubation, read-out: IC50 direct inhibition of CYP2C8
T3 construct: from tissue; host or cells: human liver microsomes
T3 sequence (P10632 1-490): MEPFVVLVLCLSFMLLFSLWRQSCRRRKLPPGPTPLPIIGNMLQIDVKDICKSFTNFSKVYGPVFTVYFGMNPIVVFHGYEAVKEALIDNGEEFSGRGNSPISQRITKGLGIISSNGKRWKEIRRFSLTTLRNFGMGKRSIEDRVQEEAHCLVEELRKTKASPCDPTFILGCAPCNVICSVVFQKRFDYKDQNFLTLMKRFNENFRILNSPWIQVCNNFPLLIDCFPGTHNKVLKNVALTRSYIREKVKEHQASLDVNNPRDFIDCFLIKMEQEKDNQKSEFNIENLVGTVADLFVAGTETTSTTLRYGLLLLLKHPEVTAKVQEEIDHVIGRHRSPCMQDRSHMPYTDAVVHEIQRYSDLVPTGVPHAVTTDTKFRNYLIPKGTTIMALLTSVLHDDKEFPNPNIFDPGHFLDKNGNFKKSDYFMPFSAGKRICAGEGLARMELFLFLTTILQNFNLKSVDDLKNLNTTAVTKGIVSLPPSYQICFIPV
Procedure: as §1

CYP2E1 = target: T4, CYP2E1 (Homo sapiens, UniProt P05181); conditions: no pre-incubation, read-out: IC50 direct inhibition of CYP2E1
T4 construct: from tissue; host or cells: human liver microsomes
Procedure: as §1

Measured: IC50

T4 sequence (P05181 whole entry): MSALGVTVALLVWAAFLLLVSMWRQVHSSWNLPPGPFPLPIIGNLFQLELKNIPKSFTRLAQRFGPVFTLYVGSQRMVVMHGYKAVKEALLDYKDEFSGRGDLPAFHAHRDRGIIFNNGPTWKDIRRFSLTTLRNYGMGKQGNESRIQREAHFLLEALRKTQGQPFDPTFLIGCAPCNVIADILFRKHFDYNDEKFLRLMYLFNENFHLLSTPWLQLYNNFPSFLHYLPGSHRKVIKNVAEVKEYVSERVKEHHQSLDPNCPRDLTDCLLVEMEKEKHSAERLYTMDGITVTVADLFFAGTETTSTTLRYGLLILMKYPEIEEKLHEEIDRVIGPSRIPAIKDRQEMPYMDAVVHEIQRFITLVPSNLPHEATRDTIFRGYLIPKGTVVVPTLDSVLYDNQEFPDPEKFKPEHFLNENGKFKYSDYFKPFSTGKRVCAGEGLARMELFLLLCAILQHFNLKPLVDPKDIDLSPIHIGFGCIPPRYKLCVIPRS

C[C@@H](N[C@H]1CCN(c2ccc(CC(=O)O)cc2)C1)c1cccc2ccccc12 [evocalcet]
> 50 µM: CYP2A6 | CYP2B6 | CYP2C8 | CYP2E1
